How the values were obtained:
Nox2 [1] = molecular target: T1, Nox2 (Homo sapiens, UniProt P04839); assay: CBA probe assay of H2O2 production by PMA-activated dHL60 cells; assay type: cell-based; conditions: PMA (1 µM)-activated dHL60 cells, 30 min preincubation with inhibitor; read-out: IC50, inhibition of H2O2 production, CBA Assay
T1 construct: endogenous in cells
T1 sequence (P04839 2-570 limits assumed): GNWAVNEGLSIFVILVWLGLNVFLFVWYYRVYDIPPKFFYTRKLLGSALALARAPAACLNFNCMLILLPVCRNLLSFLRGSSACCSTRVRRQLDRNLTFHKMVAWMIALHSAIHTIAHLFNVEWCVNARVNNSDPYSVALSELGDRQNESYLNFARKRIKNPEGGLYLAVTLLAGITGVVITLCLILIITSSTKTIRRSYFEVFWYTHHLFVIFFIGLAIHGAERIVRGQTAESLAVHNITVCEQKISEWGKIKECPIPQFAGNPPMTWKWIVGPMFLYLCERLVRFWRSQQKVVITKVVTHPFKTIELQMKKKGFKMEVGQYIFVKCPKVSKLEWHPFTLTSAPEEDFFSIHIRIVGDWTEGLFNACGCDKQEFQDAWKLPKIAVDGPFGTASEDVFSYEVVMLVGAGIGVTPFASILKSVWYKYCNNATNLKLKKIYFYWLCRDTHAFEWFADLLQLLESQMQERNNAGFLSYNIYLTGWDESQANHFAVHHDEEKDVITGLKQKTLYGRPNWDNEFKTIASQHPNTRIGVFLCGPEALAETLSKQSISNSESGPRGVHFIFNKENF
T1 sequence (P13498 2-195 partner limits assumed): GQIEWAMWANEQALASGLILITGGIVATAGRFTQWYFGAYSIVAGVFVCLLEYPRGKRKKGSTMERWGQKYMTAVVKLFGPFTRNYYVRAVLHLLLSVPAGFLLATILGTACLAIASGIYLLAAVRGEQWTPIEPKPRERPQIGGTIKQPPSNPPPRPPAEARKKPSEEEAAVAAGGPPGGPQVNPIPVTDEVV
Procedure: Human promyelocytic leukemia HL60 cells (Sigma-Aldrich) were grown in RPMI 1640 medium (Gibco, 11875-093, Billings, MT, USA) supplemented with 10% FBS (Omega Scientific (Tarzana, CA, USA)), 100 units/mL penicillin, and 100 µg/mL streptomycin, and were incubated at 37 °C and 5% carbon dioxide (CO2). For differentiation to neutrophil-like cells, HL60 cells were pelleted and resuspended in fresh media containing 1 µM of all trans-retinoic acid and incubated for four to five days. Nox2 activation was achieved by treating differentiated HL60 (dHL60) cells with 1 µM PMA [24]. Human leukemia monocytic cells, THP-1, were grown in RPMI 1640 medium + GlutaMAX^TM (Gibco, 61870-036) and supplemented with 10% FBS, 10 mM HEPES, and 1 mM sodium pyruvate and incubated at 37 °C in 5% CO2 environment. To induce differentiation into macrophages, THP-1 cells were treated with PMA (100 ng/mL) for 48 h. To test the efficacy of Nox2 inhibitors, treatment was performed with or without the inhibitor, along with PMA [35].
Plate reader-based analyses of the production of O2^•− and H2O2 by PMA-activated dHL60 cells were performed according to a published protocol with minor modifications. Briefly, for the treatment of dHL60 cells with different concentrations of the compounds, 0.5 mL deep-well 96-well plates were used to dispense and store aliquots of their 10 mM DMSO solutions. Using a Multidrop™ PicoIT dispenser (Thermo Scientific), different volumes of the solutions of candidate Nox inhibitors (10 or 50 mM in DMSO) were injected into the bottom of 0.5 mL V-bottom 96-well plates; then, they were sealed with aluminum foil (VWR, Batavia, IL, USA) using a semiautomatic thermal sealer (BT LabSystems, St. Louis, MO, USA) and stored at −20 °C to reduce freeze-thawing the solutions. The plates with inhibitors were allowed to come to room temperature before the addition of the cell suspensions. dHL60 cells were pelleted and resuspended in HBSS (Invitrogen, Waltham, MA, USA) supplemented with 25 mM HEPES (pH 7.4) and 100 µM DTPA to a cell density of 2 × 10^5 cells/mL. dHL60 cells were added to the V-bottom plates at a volume of 210 µL/well. Next, cells were incubated with inhibitors for 30 min at 37 °C in a CO2-free incubator under ambient oxygen and then transferred to black, clear-bottom 96-well plates (200 µL/well) after incubation. Freshly prepared PMA plus probe solutions in HBSS (5× concentrated, 50 µL/well) included PMA (5 µM) with CBA (500 µM) or with Amplex Red (250 µM) plus HRP (0.5 U/mL) for H2O2 detection, or with HE (50 µM) plus DNA (0.5 mg/mL) for O2^•− detection. Once probes + PMA were added, plates were sealed with sealing film and immediately placed in the pre-warmed plate readers (37 °C). Fluorescence intensities were monitored kinetically from the bottom of the plates every 1.3 min for a period of 2 h using Beckman Coulter (Brea, CA, USA) DTX880 and BMG Labtech (Ortenberg, Germany) FLUOstar Omega plate readers. DMSO alone and DPI (10 µM) were used as negative and positive controls, respectively. […] The IC50 values were determined using at least five independent measurements, each consisting of technical quadruplicates per concentration.

[2] = In vivo pharmacokinetics / brain penetration, species not specified (rodent models); conditions: rat, intraperitoneal, 20 mg/kg, rodent models
Excerpt: Rapid metabolism and the inability to cross the BBB represent major obstacles in the application of bioactive agents in neurodegenerative diseases. Based on the premise that Nox2 plays a major role in oxidative damage and exacerbates neurodegenerative diseases, we envision applications of brain-permeable Nox2 inhibitors in mechanistic studies in vivo, and, long-term, in the development of novel therapeutic strategies. Therefore, we performed in vivo pharmacokinetics studies to determine the time profile of plasma concentration and accumulation of TG15-132 in the brain tissue of Sprague Dawley rats and C57BL6 mice.

Nox2 [3] = molecular target: T1, Nox2; assay: Plate reader hydroethidine (HE + DNA) assay of O2•− production by PMA-activated dHL60 cells; assay type: cell-based
Procedure: Human promyelocytic leukemia HL60 cells (Sigma-Aldrich) were grown in RPMI 1640 medium (Gibco, 11875-093, Billings, MT, USA) supplemented with 10% FBS (Omega Scientific (Tarzana, CA, USA)), 100 units/mL penicillin, and 100 µg/mL streptomycin, and were incubated at 37 °C and 5% carbon dioxide (CO2). For differentiation to neutrophil-like cells, HL60 cells were pelleted and resuspended in fresh media containing 1 µM of all trans-retinoic acid and incubated for four to five days. Nox2 activation was achieved by treating differentiated HL60 (dHL60) cells with 1 µM PMA [24]. […]
Plate reader-based analyses of the production of O2^•− and H2O2 by PMA-activated dHL60 cells were performed according to a published protocol with minor modifications. […] Once probes + PMA were added, plates were sealed with sealing film and immediately placed in the pre-warmed plate readers (37 °C). Fluorescence intensities were monitored kinetically from the bottom of the plates every 1.3 min for a period of 2 h using Beckman Coulter (Brea, CA, USA) DTX880 and BMG Labtech (Ortenberg, Germany) FLUOstar Omega plate readers. […] The IC50 values were determined using at least five independent measurements, each consisting of technical quadruplicates per concentration.

IC50 (Nox2 [1]): 4.3 ± 1.3 µM
Kp ([2]; Sprague Dawley (rat), C57BL6 (mouse), mouse, brain, read-out: brain-to-plasma ratio (abstract)): > 5
half-life ([2]; Sprague Dawley, plasma, read-out: plasma half-life (abstract) (converted)): 5.6 h
IC50 (Nox2 [3]; HE probe + DNA, plate reader, PMA-activated dHL60 cells, Figure 5C, read-out: IC50, inhibition of O2•− production): 5 µM
PMA-stimulated increase in HE fluorescence intensity (Nox2 [3]; cell pretreatment, Figure 5B,C): dose-dependently inhibited
Compound: CN(C)CCCn1c(SCCc2c[nH]c3ccccc23)nc2ccc(F)cc2c1=O [TG15-132]

— publication PMC10525516, “Novel NADPH Oxidase-2 Inhibitors as Potential Anti-Inflammatory and Neuroprotective Agents” (Antioxidants, 2023)
